According to patent publication US20070173478A1, “Compositions for the enhanced treatment of depression” (WWK TRUST, priority 2003, published 2007):

Test system: chronic endogenous depression
Assay: Case #1: patient with chronic endogenous depression
Format: in vivo, human
Details: person

For `CN(C)CC/C=C1\c2ccccc2CSc2ccccc21` [prothiaden], the “effect of previous treatment” value (previous treatment) was “relatively ineffective” and the “side effects of previous treatment” value (previous treatment) was “complained of side effects”.
For `CNCCC(Oc1ccc(C(F)(F)F)cc1)c1ccccc1` (stereo not drawn) [fluoxetine], the “antidepressant effect of fluoxetine alone” value (30 mg fluoxetine once daily, before the combination) was “requiring increasing doses to sustain antidepressant effects”.
